A short description of data set [1]: Human microsomal metabolic stability. The format is in vitro ADME. Conditions: human microsomes 0.5 mg/mL, 1 μM test compound, NADPH, 37° C., pH 7.4, 0-30 minutes. The procedure, abridged: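 1 μM compound with 0.5 mg/mL human liver microsomal protein in 100 mM phosphate pH 7.4 at 37° C, started with 1 mM NADPH or a NADPH-regenerating system. Sampled at 0–30 min, quenched in cold methanol with tolbutamide internal standard; remaining parent quantified by LC-MS/MS.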

The next data set has as its system CYP3A4. Kind of data set: Cytochrome P450 induction screening assay, mRNA induction in human cryopreserved hepatocytes. The format is in vitro ADME. The following applies: CYP3A4 mRNA relative induction, 24 hours, test compound up to 10 μM. The procedure:
Human cryopreserved hepatocytes (Life Technologies, Carlsbad, USA) were thawed and cultured in collagen I coated 96-well plates with a density of 52,000 cells/well. After attachment, medium was changed and cells were pre-cultured overnight in hepatocyte maintenance medium (HMM; Lonza, Switzerland).
Test compounds were dosed to the cells next morning at an indicated concentration (up to 10 μM) in HMM culture media containing gentamycin and a constant 0.1% DMSO. Similarly, dilutions of the positive inducer compounds omeprazole (prototypical inducer of human CYP1A2; final concentrations: 1 and 10 μM), phenobarbital (prototypical inducer of human CYP2B6; final concentrations: 100 and 1000 μM) and rifampicin (prototypical inducer of human CYP3A4; final concentrations: 1 and 10 μM) were prepared from 1000 fold DMSO stock solutions in HMM containing gentamycin. Medium change was then performed and cells were exposed for 24 hours to test compounds, positive inducer compounds, or vehicle (0.1% DMSO), respectively.
At the end of the compound exposure period, medium was removed and cells lysed using 100 μL/well MagNA Pure LC RNA isolation tissue lysis buffer (Roche Diagnostics AG, Rotkreuz, Switzerland). Plates were then sealed and frozen at −80° C. until further workup.
mRNA isolation was performed using the MagNA Pure 96 system (Roche Diagnostics AG, Rotkreuz, Switzerland) and the respective cellular RNA large volume kit (Roche Diagnostics AG, Rotkreuz, Switzerland) from thawed samples diluted 1:1 with PBS. The volume of the cell lysis and an elution volume of 100 μL were used. 20 μl of the resulting mRNA suspension was then used for reverse transcription using 20 μl of the transcript or first stand cDNA synthesis kit (Roche prime Supply, Mannheim, Germany). The resulting cDNA was diluted with 40 μl of H2O before using for qRT-PCR. qRT-PCR was performed by using the forward and the reverse primer, the corresponding UPL (all from Microsynth, Balgach, Switzerland) and the Taqman Fast advanced master mix (Applied Biosystems), on an ABI 7900 machine (Applied Biosystems).
qRT-PCR Ct-values for the respective P450s were put into relation to the Ct-value of RN18S1 (microsynth, Balgach, Switzerland) of the same sample. Doing so, a respective Δct-value was calculated. Using the average of all Δct-values for the vehicle control samples, a ΔΔct-value was calculated for each sample (ΔΔct-value(sample)=Δct-value(sample)−average of Δct-value of all vehicle controls). The fold induction of the respective sample was calculated as 2^(−ΔΔct). The individual fold induction values were then averaged per treatment condition (usually n=3 biological replicates).
Relative induction values to the respective positive inducer compound condition (10 μM omeprazole for CYP1A2; 1000 μM Phenobarbital for CYP2B6; 10 μM rifampicin for CYP3A4) were then calculated from the fold induction values as follows: Relative induction (%)=100×(T−V)/(P−V)

In the next data set the test system is HBV. Briefly: Anti-HBV activity in vitro, HepG2.2.15 cells, extracellular HBV DNA by qPCR. The data set is classed as cell-based. Conditions: Hepatitis B virus, HepG2.2.15, 120 h, HepG2.2.15 cells; HBV replication inhibited by 50%, extracellular HBV DNA by qPCR; five days after compound treatment; read-out: EC50. In short, it runs like this: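 Extracellular HBV DNA in culture supernatant was measured by qPCR after nucleic acid extraction. The supernatant came from constitutively replicating HepG2.2.15 cells exposed for five days to half-log-diluted compounds, with DMSO at 0.5% final. Cells had been plated overnight at 37 °C beforehand.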

A short description of another data set: Lysa solubility. The format is physicochemical. The following applies: phosphate buffer, pH 6.5, aqueous buffer, thermodynamic from solid, 0.05 M phosphate buffer (pH 6.5). The procedure, abridged:
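Duplicate samples dried from 10 mM DMSO stocks, taken up in 0.05 M phosphate buffer pH 6.5, stirred 1 h, shaken 2 h and left overnight. Filtrate and 1/10 dilution quantified by direct UV or HPLC-UV, in μg/mL; above 80% of the calculated maximum, reported as greater than that value.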

Data set [2] is described as follows: Cytotoxicity in HepDE19 cells (CCK-8) and selectivity index. The format is cell-based. Conditions: human, HepDE19 cells; CCK-8 cell viability; five days after treatment. From the text:
(§1) HepG2.2.15 and HepDE19 are stably-transfected cell lines containing the HBV genome. Both cell lines are derived from the hepatoblastoma cell line Hep G2 (American Type Culture Collection, ATCC® HB-8065™) by the published procedures described in references: MA Selles et al. Proc. Natl. Acad. Sci. USA 1987, 84, 1005-1009 and H Guo et al. Journal of Virology 2007, 81, 12472-12484, respectively. Both cell lines were maintained in Dulbecco's modified Eagle's medium (DMEM)-F12 medium supplemented with 10% fetal bovine serum, 100 U/mL penicillin, 100 μg/mL streptomycin, and 0.5 mg/mL of G418.
(§2) HepDE19 cells were seeded into 96-well plates (5×10^3 cells per well) and treated with compounds for EC50 determination. Five days after treatment, cell viability was measured by addition of 20 μL of CCK-8 reagent. Two hours after incubation at 37° C., the absorbance at wavelengths of 450 nm and 630 nm (OD450 and OD630) was recorded by a plate reader. The concentration results in the death of 50% of the host cells (CC50) of each compound were determined.
(§3) The relative effectiveness of the compound in inhibiting viral replication compared to inducing cell death was defined as the selectivity index (CC50 value/EC50 value). Based on CC50 and EC50 data, selectivity indexes were determined.

The test system of another data set is HepDE19 cells. Described as above. The following applies: CC50 (HepDE19) value / EC50 (HepG2.2.15) value. The format is cell-based.
From the text: as §1, §2, §3

Converted amounts (≈) assume the structure as drawn. Some results are limits rather than exact numbers.

Results on ten compounds are retold here after US9233978B2, “6-fused heteroaryldihydropyrimidines for the treatment and prophylaxis of hepatitis B virus infection” (Hoffmann-La Roche Inc., priority 2014, dated 2016).

Consider `COC(=O)C1=C(CN2CCN3C(=O)N(C4CC4)CC3(CC(=O)O)C2)NC(c2nccs2)=N[C@H]1c1ccc(F)cc1Cl` (stereo partly drawn) [Example 30, 2-[7-[[(4R)-4-(2-chloro-4-fluoro-phenyl)-5-methoxycarbonyl-2-thiazol-2-yl-1,4-dihydropyrimidin-6-yl]methyl]-2-cyclopropyl-3-oxo-1,5,6,8-tetrahydroimidazo[1,5-a]pyrazin-8a-yl]acetic acid], for which the “Human Microsomal Clearance” value in data set [1] is 1.7 mL/min/kg. Further, the “% of Positive control (10 μM Rifampicin)” value in the data set with CYP3A4 amounted to 7.3%. Also, in the data set with HBV, the EC50 (in general, the midpoint of the concentration-response curve) came to 95 nM. The solubility (thermodynamic) (usually the concentration in solution at equilibrium with solid) in the data set “Lysa solubility” was determined as 610 µg/mL (≈ 1010 µM).
With `CCOC(=O)C1=C(CN2CCN3C(=O)N(CC(C)(C)C(=O)O)C[C@@H]3C2)NC(c2nccs2)=N[C@H]1c1ccc(F)c(F)c1C` [Example 22, 3-[(8aS)-7-[[(4S)-4-(3,4-difluoro-2-methyl-phenyl)-5-ethoxycarbonyl-2-thiazol-2-yl-1,4-dihydropyrimidin-6-yl]methyl]-3-oxo-5,6,8,8a-tetrahydro-1H-imidazo[1,5-a]pyrazin-2-yl]-2,2-dimethyl-propanoic acid], the CC50 (commonly the concentration giving 50% cytotoxicity) at 5 days in data set [2] was more than 100000 nM. Moreover, the “Selectivity index (CC50/EC50)” value in the data set on HepDE19 cells is more than 34482. Moreover, the “% of Positive control (10 μM Rifampicin)” value with CYP3A4 is 0%. Moreover, the EC50 in the data set on HBV came to 3 nM.
As for `COC(=O)C1=C(CN2CCN3C(=O)N(CC(C)(C)C(=O)O)C[C@@H]3C2)NC(c2nccs2)=N[C@H]1c1ccc(F)c(F)c1C` [Example 43, 3-[(8aS)-7-[[(4S)-4-(3,4-difluoro-2-methyl-phenyl)-5-methoxycarbonyl-2-thiazol-2-yl-1,4-dihydropyrimidin-6-yl]methyl]-3-oxo-5,6,8,8a-tetrahydro-1H-imidazo[1,5-a]pyrazin-2-yl]-2,2-dimethyl-propanoic acid], the “Human Microsomal Clearance” value in data set [1] stood at 3.1 mL/min/kg. Also, the “% of Positive control (10 μM Rifampicin)” value in the data set with CYP3A4 was determined as 0.2%. In the data set with HBV, the EC50 stood at 6 nM.
In the case of `CCOC(=O)C1=C(CN2CCN3C(=O)N(c4cccc(C(=O)O)c4)C[C@@H]3C2)NC(c2nccs2)=N[C@H]1c1cccc(F)c1Cl` [Example 27, (R)-6-[(S)-2-(3-Carboxy-phenyl)-3-oxo-hexahydro-imidazo[1,5-a]pyrazin-7-ylmethyl]-4-(2-chloro-3-fluoro-phenyl)-2-thiazol-2-yl-1,4-dihydro-pyrimidine-5-carboxylic acid ethyl ester], the “% of Positive control (10 μM Rifampicin)” value in the data set with CYP3A4 is 0.2%. The EC50 in the data set on HBV is 3 nM.
The compound `COC(=O)C1=C(CN2CCN3C(=O)N(Cc4ccc(C(=O)O)cc4)CC3C2)NC(c2nccs2)=N[C@H]1c1ccc(F)cc1Cl` (stereo partly drawn) [Example 65, (R)-6-[2-(4-Carboxy-benzyl)-3-oxo-hexahydro-imidazo[1,5-a]pyrazin-7-ylmethyl]-4-(2-chloro-4-fluoro-phenyl)-2-thiazol-2-yl-1,4-dihydro-pyrimidine-5-carboxylic acid methyl ester] returned a CC50 at 5 days in data set [2] of more than 100000 nM. Further, the “Selectivity index (CC50/EC50)” value with HepDE19 cells is more than 11111. The “Human Microsomal Clearance” value in data set [1] turned out to be 6.2 mL/min/kg. Also, the EC50 in the data set on HBV turned out to be 9 nM. The compound further returned a thermodynamic solubility in “Lysa solubility” of 194 µg/mL (≈ 304 µM).
Consider `COC(=O)C1=C(CN2CCN3C(=O)N(c4ccc(C(=O)O)cc4)C[C@@H]3C2)NC(c2nccs2)=N[C@H]1c1ccc(F)cc1Cl` [Example 25, (R)-6-[(S)-2-(4-Carboxy-phenyl)-3-oxo-hexahydro-imidazo[1,5-a]pyrazin-7-ylmethyl]-4-(2-chloro-4-fluoro-phenyl)-2-thiazol-2-yl-1,4-dihydro-pyrimidine-5-carboxylic acid methyl ester], for which the “Human Microsomal Clearance” value in data set [1] was determined as 0.4 mL/min/kg. In the data set with CYP3A4, the “% of Positive control (10 μM Rifampicin)” value was found to be 0%. Further, in the data set on HBV, the EC50 came to 2 nM.
In data set [2], `COC(=O)C1=C(CN2CCN3C(=O)NC[C@@H]3C2)NC(c2nccs2)=N[C@H]1c1ccc(F)cc1Cl` [Example 11, Methyl (4R)-6-[[(8aR)-3-oxo-1,2,5,6,8,8a-hexahydroimidazo[1,5-a]pyrazin-7-yl]methyl]-4-(2-chloro-4-fluoro-phenyl)-2-thiazol-2-yl-1,4-dihydropyrimidine-5-carboxylate] returned a CC50 at 5 days of 52000 nM. For the same compound, in the data set on HepDE19 cells, the “Selectivity index (CC50/EC50)” value was found to be 30635. The “% of Positive control (10 μM Rifampicin)” value in the data set on CYP3A4 is 17%. For the same compound, in the data set on HBV, the EC50 stood at 1 nM.
Turning to `CCOC(=O)C1=C(CN2CCN3C(=O)OC[C@@H]3[C@H]2C(=O)O)NC(c2nccs2)=N[C@H]1c1cccc(F)c1Cl` (single isomer, unassigned) [Example 102B], in data set [2], the CC50 at 5 days was more than 100000 nM. Also, in the data set on HepDE19 cells, the “Selectivity index (CC50/EC50)” value is more than 7142. Moreover, the “Human Microsomal Clearance” value in data set [1] was 6.2 mL/min/kg. The EC50 in the data set on HBV is 14 nM. In “Lysa solubility”, this compound returned a solubility (thermodynamic) of more than 665 µg/mL.
For `CCOC(=O)C1=C(CN2CCN3C(=O)CC[C@@H]3[C@H]2C(=O)O)NC(c2nccs2)=N[C@H]1c1cccc(F)c1Cl` (racemic) [Example 99, 2-[[(4R)-4-(2-chloro-3-fluoro-phenyl)-5-ethoxycarbonyl-2-thiazol-2-yl-1,4-dihydropyrimidin-6-yl]methyl]-6-oxo-1,3,4,7,8,8a-hexahydropyrrolo[1,2-a]pyrazine-1-carboxylic acid] the same measures were more than 100000 nM, more than 7142, 6.1 mL/min/kg, 14 nM and more than 710 µg/mL.
In the case of `COC(=O)C1=C(CN2CCN3C(=O)N(C4CC4)C[C@@H]3[C@H]2C(=O)O)NC(c2nccs2)=N[C@H]1c1ccc(F)cc1Cl` (racemic) [Example 45, 7-[[(4R)-4-(2-chloro-4-fluoro-phenyl)-5-methoxycarbonyl-2-thiazol-2-yl-1,4-dihydropyrimidin-6-yl]methyl]-2-cyclopropyl-3-oxo-5,6,8,8a-tetrahydro-1H-imidazo[1,5-a]pyrazine-8-carboxylic acid], the “% of Positive control (10 μM Rifampicin)” value with CYP3A4 is 20%. The EC50 in the data set on HBV is 26 nM. This compound gave a solubility (thermodynamic) in “Lysa solubility” of more than 690 µg/mL.
